The record followed here is patent publication US7470684B2, “Spiropiperidine derivatives as NK3 antagonists” (Hoffmann-La Roche Inc., priority 2007, dated 2008).

As a reminder, the Ki is a measure of affinity in units of concentration, obtained from inhibition or displacement.

Read-outs that look alike come from different tables or passages of the source.

This assay has as its target T1, human NK3 receptor (Homo sapiens, UniProt P29371).
T1 construct: expressed in transfected cells; host or cells: HEK293 cells, transiently transfected; membranes
T1 sequence (P29371 1-465): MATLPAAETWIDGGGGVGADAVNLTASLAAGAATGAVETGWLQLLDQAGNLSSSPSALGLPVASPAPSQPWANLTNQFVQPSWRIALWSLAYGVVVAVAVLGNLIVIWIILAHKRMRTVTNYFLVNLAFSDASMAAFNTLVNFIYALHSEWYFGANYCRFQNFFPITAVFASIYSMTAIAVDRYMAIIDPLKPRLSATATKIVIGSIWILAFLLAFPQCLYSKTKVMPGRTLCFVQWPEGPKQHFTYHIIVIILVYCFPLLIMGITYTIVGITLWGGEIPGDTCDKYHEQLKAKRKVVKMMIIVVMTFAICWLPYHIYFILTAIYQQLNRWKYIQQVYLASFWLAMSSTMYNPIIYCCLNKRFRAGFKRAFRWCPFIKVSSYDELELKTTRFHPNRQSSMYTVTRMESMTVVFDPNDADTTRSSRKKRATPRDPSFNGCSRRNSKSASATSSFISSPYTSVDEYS
The assay can be described thus: [3H]SR142801 competition binding assay. The protocol:
[^3H]SR142801 Competition Binding Assay
hNK3 receptor binding experiment were performed using [^3H]SR142801 (Catalog No. TRK1035, specific activity: 74.0 Ci/mmol, Amersham, GE Healthcare UK limited, Buckinghamshire, UK) and membrane isolated from HEK293 cells transiently expressing recombinant human NK3 receptor. After thawing, the membrane homogenates were centrifuged at 48,000×g for 10 min at 4° C., the pellets were resuspended in the 50 mM Tris-HCl, 4 mM MnCl2, 1 μM phosphoramidon, 0.1% BSA binding buffer at pH 7.4 to a final assay concentration of 5 μg protein/well. For inhibition experiments, membranes were incubated with [^3H]SR142801 at a concentration equal to KD value of radioligand and 10 concentrations of the inhibitory compound (0.0003-10 μM) (in a total reaction volume of 500 μl) for 75 min at room temperature (RT). At the end of the incubation, membranes were filtered onto unitfilter (96-well white microplate with bonded GF/C filter preincubated 1 h in 0.3% PEI+0.3% BSA, Packard BioScience, Meriden, Conn.) with a Filtermate 196 harvester (Packard BioScience) and washed 4 times with ice-cold 50 mM Tris-HCl, pH 7.4 buffer. Nonspecific binding was measured in the presence of 10 μM SB222200 for both radioligands. The radioactivity on the filter was counted (5 min) on a Packard Top-count microplate scintillation counter with quenching correction after addition of 45 μl of microscint 40 (Canberra Packard S.A., Zürich, Switzerland) and shaking for 1 h. Inhibition curves were fitted according to the Hill equation: y=100/(1+(x/IC50)^nH), where nH=slope factor using Excel-fit 4 software (Microsoft). IC50 values were derived from the inhibition curve and the affinity constant (Ki) values were calculated using the Cheng-Prussoff equation Ki=IC50/(1+[L]/KD) where [L] is the concentration of radioligand and KD is its dissociation constant at the receptor, derived from the saturation isotherm. All experiments were performed in duplicate and the mean±standard error (SEM) of the individual Ki values was calculated.

The mark [1] stands for this setting: hNK3 Ki, [3H]SR142801 displacement, membranes of HEK293 cells transiently expressing recombinant human NK3 receptor.

Consider `CN1C(=O)OC2(CCN(CCC(C(=O)N3CCC(F)CC3)c3ccc(Cl)c(Cl)c3)CC2)c2cc(F)ccc21` (stereo not shown) [Example 43, 1′-[3-(3,4-dichlorophenyl)-4-(4-fluropiperidin-1-yl)-4-oxobutyl]-6-fluoro-1-methylspiro[3,1-benzoxazine-4,4′-piperidin]-2(1H)-one], for which the Ki amounted to 61.9 nM.

For `CN(Cc1cccc(C(F)(F)F)c1)C(=O)C(CCCN1CCC2(CC1)OC(=O)Nc1ccc(F)cc12)c1ccc(Cl)c(Cl)c1` (stereo not shown) [Example 130, 2-(3,4-dichlorophenyl)-5-(6-fluoro-2-oxo-1,2-dihydro-1′H-spiro[3,1-benzoxazine-4,4′-piperidin]-1′-yl)-N-methyl-N-[3-(trifluoromethyl)benzyl]pentanamide], under setting [1], the Ki came to 91.9 nM.

Take `CN(Cc1ccccc1Cl)C(=O)C(CCN1CCC2(CC1)OC(=O)N(C)c1ccc(F)cc12)c1ccc(Cl)c(Cl)c1` (stereo not shown) [Example 44, N-(2-chlorobenzyl)-2-(3,4-dichlorophenyl)-4-(6-fluoro-1-methyl-2-oxo-1,2-dihydro-1′H-spiro[3,1-benzoxazine-4,4′-piperidin]-1′-yl)-N-methylbutanamide]: the Ki under setting [1] came to 1.6 nM.

In the case of `COc1cc(CN(C)C(=O)C(CCN2CCC3(CC2)OC(=O)Nc2ccc(F)cc23)c2ccc(Cl)c(Cl)c2)ccc1OC(F)F` (stereo not shown) [Example 75, 2-(3,4-dichlorophenyl)-N-[4(difluoromethoxy)-3-methoxybenzyl]4-(6-fluoro-2-oxo-1,2-dihydro-1′H-spiro[3,1-benzoxazine-4,4′-piperidin]-1′-yl)-N-methylbutanamide], the Ki under setting [1] stood at 7.7 nM.

Consider `CN1C(=O)OC2(CCN(CCC(C(=O)NCc3ccc(OC(F)(F)F)cc3)c3ccc(Cl)c(Cl)c3)CC2)c2cc(F)ccc21` (stereo not shown) [Example 110, 2-(3,4-dichlorophenyl)-4-(6-fluoro-1-methyl-2-oxo-1,2-dihydro-1′H-spiro[3,1-benzoxazine-4,4′-piperidin]-1′-yl)-N-[4-(trifluoromethoxy)benzyl]butanamide], for which, under setting [1], the Ki is 3.2 nM.

On to `CN1C(=O)OC2(CCN(CCC(C(=O)NCc3ccc(S(C)(=O)=O)cc3)c3ccc(Cl)c(Cl)c3)CC2)c2cc(F)ccc21` (stereo not shown) [Example 33, 2-(3,4-dichlorophenyl)-4-(6-fluoro-1-methyl-2-oxo-1,2-dihydro-1′H-spiro[3,1-benzoxazine-4,4′-piperidin]-1′-yl)-N-[4-(methylsulfonyl)benzyl]butanamide], for which the Ki under setting [1] is 54.7 nM.

As to `COc1ccc(CNC(=O)C(CCN2CCC3(CC2)OC(=O)Nc2ccc(F)cc23)c2ccc(Cl)c(Cl)c2)cc1` (stereo not shown) [Example 82, 2-(3,4-dichlorophenyl)-4-(6-fluoro-2-oxo-1,2-dihydro-1′H-spiro[3,1-benzoxazine-4,4′-piperidin]-1′-yl)-N-(4-methoxybenzyl)butanamide], the Ki under setting [1] turned out to be 19.7 nM.

In turn, `CN1C(=O)OC2(CCN(CCC(C(=O)NCc3ccc(-n4cccn4)cc3)c3ccc(Cl)c(Cl)c3)CC2)c2cc(F)ccc21` (stereo not shown) [Example 94, 2-(3,4-dichlorophenyl)-4-(6-fluoro-1-methyl-2-oxo-1,2-dihydro-1′H-spiro[3,1-benzoxazine-4,4′-piperidin]-1′-yl)-N-[4-(1H-pyrazol-1-yl)benzyl]butanamide] returned an inhibitory constant (Ki) of 87.7 nM.

For the compound `COc1ccc(CN(C)C(=O)C(CCN2CCC3(CC2)OC(=O)Nc2ccc(F)cc23)c2ccc(Cl)c(Cl)c2)cc1F` (stereo not shown) [Example 74, 2-(3,4-dichlorophenyl)-N-(3-fluoro-4-methoxybenzyl)-4-(6-fluoro-2-oxo-1,2-dihydro-1′H-spiro[3,1-benzoxazine-4,4′-piperidin]-1′-yl)-N-methylbutanamide], the Ki under setting [1] is 5.5 nM.

In the case of `Cc1ccc(CN(C)C(=O)C(CCN2CCC3(CC2)OC(=O)N(C)c2ccc(F)cc23)c2ccc(Cl)c(Cl)c2)cc1` (stereo not shown) [Example 102, 2-(3,4-dichlorophenyl)-4-(6-fluoro-1-methyl-2-oxo-1,2-dihydro-1′H-spiro[3,1-benzoxazine-4,4′-piperidin]-1′-yl)-N-methyl-N-(4-methylbenzyl)butanamide], the Ki ([3H]SR142801 displacement, membranes of HEK293 cells transiently expressing recombinant human NK3 receptor, read-out: hNK3 Ki) was 2.1 nM.
